From patent US20130338222A1, “METHODS FOR C[…] MITES” (SYNGENTA CROP PROTECTION LLC, priority 2010, published 2013) come the findings set out here.

The series deals with Varroa destructor. Kind of series: Varroa mite contact test on Potter-tower-treated Petri dishes, mortality after 72 h. To be noted: adult V. destructor, 20 mites (4 dishes of 5), assessed after 72 h. The class given is in vivo. An excerpt:
Varroa mites came from bee colonies provided by a beekeeper. The mite population is kept in a dedicated apiary. For screening needs adults are collected on the same day as the beginning of experiment, either in beehive cells containing brood of worker bees or drones, or directly on bees emerging during collection.
Bee nymphs needed to feed adults of Varroa mites during experiments are choosen within the frames from which Varroa is also collected. They are collected at the stage of nymph with white or pink coloured eyes according methology described by Rembold et Kremer (Characterization of postembryonic developmental stages of the female castes of the honey bee, Apis mellifera L. Apidologie 11: 29-38).
3 cm diameter Petri dishes were used as confinement material of Varroa mites during experiments. Covers with wire mesh were put on the top of each Petri dish in order to avoid the mites to run away but also to keep favorable humidity for the bee nymph. […]
After treatment of Petri dishes, five (5) adults of V. destructor collected from the brood were placed in the petri dish. […] Mortality levels are assessed after 72 h (mites which are able to move their legs are considered as alive). […]

Molecules are shown by their SMILES.

Consider `CCC(C)(C)C(=O)OC1=C(c2ccc(Cl)cc2Cl)C(=O)OC12CCCCC2` [spirodiclofen, 3-(2,4-dichlorophenyl)-2-oxo-1-oxaspiro[4.5]dec-3-en-4-yl 2,2-dimethylbutyrate], for which, where the note is “formulation SC240, concentration 1.25 microlitre”, the “% mortality of Varroa” value stood at 100%.
In the case of `Cc1cc(C)c(C2=C(OC(=O)CC(C)(C)C)C3(CCCC3)OC2=O)c(C)c1` [spiromesifen, 3-mesityl-2-oxo-1-oxaspiro[4.4]non-3-en-4-yl 3,3-dimethylbutyrate], the “% mortality of Varroa” value (formulation SC240, concentration 0.8 microlitre) was 100%.
